Read-outs that look alike come from different tables or passages of the source.
What was measured:
[1] = TOSC (total oxyradical scavenging capacity) assay, peroxyl radicals generated from ABAP; assay type: biochemical; details: both oxyradicals; for scavenging capacity for peroxyl radicals and peroxynitrite: rank in words
Procedure: In order to measure the antioxidative activities of the A. japonica sample fractions, the radical scavenging capacities of the fractions were measured in the following manner using the total oxyradical scavenging capacity (TOSC) assay. The TOSC assay was performed by a modification of the method proposed by Winston et al. (Free Radic. Biol. Med., 24: 480˜493, 1998) (J. Agric. Food Chem. 56, 10510-10514, 2008).
Peroxyl radicals were generated by the thermal homolysis of 2,2′-azobisamidinopropane (ABAP) at 35° C., and peroxynitrite was generated by the spontaneous decomposition of SIN-1.
Then, a total volume of 1 ml of the reaction solution was placed in a 10-ml vial sealed with a rubber septum. For detection of the produced ethylene gas, a gas chromatograph (GC), equipped with a DB-05 capillary column and a flame ionization detector) (FID), was used, an oven set was 60° C., and the injector and the detector were set at 180° C. As a mobile phase, helium was injected into the column at a rate of 2 ml/min. For quantitative determination of the amount of ethylene gas in the vial, 150 μl of gas was sampled from the vial with a gas-tight syringe using a headspace technique and injected into the injector.
The area under the kinetic curve (AUC) was obtained by integrating the graph determined from the results of the above experiment, and the TOSC value was calculated according to the following equation 1 and shown in Table 1 below:
TOSC=100−(∫SA/∫CA×100) [Equation 1]

[2] = tested on: primarily cultured hepatocytes of rats; experiment: Hepatoprotective activity: inhibition of tert-butyl hydroperoxide-induced necrosis (LDH release) in primary hepatocytes; assay type: cell-based, white rats; details: 1.2 mM tBH for 50 minutes
Procedure: In order to measure the hepatoprotective activities of the A. japonica sample fractions, the primarily cultured hepatocytes of white rats were isolated, and then the inhibitory abilities of the fractions against necrosis induced by treating the isolated hepatocytes with 1.2 mM of tert-butyl hydroperoxide for 50 minutes were examined (Park E J et al., Planta Med, 71: 508˜513, 2005).
Hepatocytes were isolated from white rats according to the method of Seglen et al. Briefly, white rats were anesthetized and the abdomen was incised. Then, a catheter was inserted into the portal vein and perfused with Ca^2+, Mg^2+-free Hank's balanced salt solution bubbled with a mixed gas of 5% CO2 and 95% O2 at 37° C. so as to remove blood from the liver. Then, the catheter was perfused with 0.05% type IV collagenase and 1 mM CaCl2 solution. The liver tissue was removed from the body, and a hepatocyte suspension was prepared from the liver tissue and centrifuged at 50×g for 2 minutes. The precipitated hepatocytes were collected and washed twice with Ca^2+, Mg^2+-free Hank's balanced salt solution. The washed hepatocytes were added at a concentration of 1×10^6 cells/ml to Williams' Medium E (WME, GibcoBRL, USA) containing 10% (v/v) fetal bovine serum (FBS, GibcoBRL), 10^−8 M insulin, 50 U/ml of penicillin and 50 μg/ml of streptomycin (Sigma) in an incubator coated with type I collagen, and were then cultured under 5% CO2 at 37° C. After 2 hours of the culture, the cells were washed with Hank's balanced salt solution to remove non-adhered cells, and the medium was replaced with fresh medium. Then, the cells were cultured under 5% CO2 at 37° C. for 16 hours and then used in the experiment.
Herein, tBH is metabolized into free radical intermediates, which initiate lipid peroxidation to affect the cell integrity, and release LDH into the medium, thus forming covalent bonds with cellular molecules causing damage to the cells.

[3] = Rattus norvegicus, Hepatocyte, 50 min, means ± SE of three independent experiments in triplicate, read-out: ED50 (the source's name)
[4] = Rattus norvegicus, Hepatocyte, 50 min, read-out: LDH release inhibitory rate (ED50)
[5] = read-out: LDH release inhibitory rate (ED50)

Molecule | scavenging capacity for peroxyl radicals and peroxynitrite [1] | EC50 [2, 3] | EC50 [2, 4] | EC50 [2, 5] | activities against reactive oxygen species ([1]; in words) | effect on the inhibition of LDH release ([2]; in words)
O=C(/C=C/CCc1ccc(O)c(O)c1)CCc1ccc(O)c(O)c1 [hirsutenone] | highest | 3.08 ± 0.14 µM | 3.08 µM |  |  | 
rubranoside C | second highest |  |  | 12.8 µM |  | 
platyphyllonol-5-xylose [Platyphyllone-5-xylose] |  |  |  |  | weak | no effect
alnuside A | second highest |  |  | 26.5 µM |  | 
alnuside B | second highest |  |  | 25.9 µM |  | 
COc1cc(C2Oc3cc([C@H]4Oc5cc(O)cc(O)c5C(=O)[C@@H]4O)ccc3OC2CO)ccc1O (stereo partly shown) [Silibinin, reference compound] |  | 131 ± 6.7 µM | 131 µM |  |  | 
O=C(CCc1ccc(O)c(O)c1)C[C@@H](O)CCc1ccc(O)c(O)c1 [hirsutanonol] | highest | 6.28 ± 0.81 µM | 6.28 µM |  |  | 
